System: NCI-H841 complex tumor spheroid viability
Assay: Anticancer human tumor NCI-H841 cell line growth inhibition;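 also: spheroids exposed to compounds for 7 days before readout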;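 as to viability, T/C: 100% = DMSO vehicle control wells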
Conditions: for IC50: curve of first compound; for viability, T/C: stronger effect = lower value
From the text: Multicellular complex tumor spheroid response to DNA repair inhibitors in combination with DNA-damaging drugs
This study explores the anticancer activities of DNA-damaging drugs and inhibitors of DNA damage repair, both as single agents and in combinations. Complex tumor spheroids comprised of malignant cells, endothelial cells and mesenchymal stem cells served as an in vitro model for human solid tumors. This model system incorporates physiologically relevant features and patient-derived or established malignant cell lines with clinically relevant genetic alterations from many tumor types. Twenty-six patient-derived or established malignant cell lines were evaluated representing sarcoma, melanoma, small cell lung cancer (SCLC), non-small cell lung cancer (NSCLC), as well as bladder, ovarian and pancreatic cancers. The concentration ranges selected for each drug and investigational agent were based upon clinically achievable concentrations if the clinical Cmax of the agent was known.
Compounds. The drugs and compounds olaparib (NSC753686), talazoparib (NSC767125), berzosertib (NSC777718), elimusertib (NSC800525), nedisertib (NSC802822), VX-984 (NSC792969), AZD-1390 (NSC803789), temozolomide (NSC362856), topotecan (NSC609699), trabectedin (NSC813783), staurosporine (NSC755774), and gemcitabine (NSC613327) were obtained from the National Cancer Institute (NCI) Developmental Therapeutics Program Chemical Repository. The FDA-approved anticancer drug set is available from the Developmental Therapeutics Program at https://dtp.cancer.gov/organization/dscb/obtaining/available_plates.htm. […] The stock solutions were prepared in dimethyl sulfoxide (DMSO, Sigma-Aldrich, St. Louis, MO, cat. D2650) at 400-fold the tested concentration and stored at -70 degrees C. Prior to their use, the stock solutions were diluted in fresh medium and the final DMSO concentration in the assay was 0.25% (v/v). All drugs and investigational agents were tested over a range starting from a high concentration at or near the clinical Cmax and decreasing in half-log increments. If the clinical Cmax for an agent had not been determined, the highest concentration tested was 10 microM.
Cell Lines. The patient-derived cancer cell (PDC) lines: 156681-154-R-J1-PDC, 283228-195-R-J1-PDC, 287954-098-R-J1-PDC, 292921-168-R-J2-PDC, 349418-098-R-PDC, 425362-245-T-J1-PDC, 556581-035-R-J1-PDC, and BL0293-F563-PDC were received from the NCI Patient-Derived Models Repository (PDMR, https://pdmr.cancer.gov). The established cell lines HS-SY-2 (RRID:CVCL_8719), MPNST, and SYO-1 (RRID:CVCL_7146) were obtained from the Sloan Kettering Institute. The alveolar soft parts sarcoma cell line ASPS-1 (RRID:CVCL_S738) was established at the NCI and grown from internal seed stocks. The following established cell lines were purchased from the American Type Culture Collection (ATCC, Manassas, VA): G-401 (ATCC, cat. CRL-1441, RRID:CVCL_0270), SW982 (ATCC, cat. HTB-93, RRID:CVCL_1734), VA-ES-BJ (ATCC, cat. CRL-2138, RRID:CVCL_1785), NCI-H719 (ATCC, cat. CRL-5837, RRID:CVCL_1582), NCI-H196 (ATCC, cat. CRL-5823, RRID:CVCL_1509), NCI-H841 (ATCC, cat. CRL-5845, RRID:CVCL_1595), NCI-H1618 (ATCC, cat. CRL-5879, RRID:CVCL_1480), NCI-H1876 (ATCC, cat. CRL-5902, RRID:CVCL_1503), DMS 114 (ATCC, cat. CRL-2066; RRID:CVCL_1174), NCI-H211 (ATCC, cat. CRL-5824; RRID:CVCL_1529), and SW 1271 (ATCC, cat. CRL-2177, RRID:CVCL_1716). The small cell lung cancer cell line COR-L88 was purchased from Sigma-Aldrich (cat. 92031917-1VL, RRID:CVCL_1141). The non-small cell lung cancer cell lines NCI-H226 (RRID:CVCL_1544) and NCI-H322M (RRID:CVCL_1557) were established at the NCI and grown from internal seed stocks. Pooled donor human umbilical vein endothelial cells (HUVEC, Lonza, cat. CC-2519) and human mesenchymal stem cells (hMSC, Lonza, cat. PT-2501) were purchased from Lonza (Walkersville, MD).
Cell Culture. All cells were maintained in an incubator at 37 degrees C and 5% CO2 with 95% humidity. […]

[1] = second compound 0.003 µM, first compound 0.00949 µM
[2] = second compound 0.003 µM, first compound 0.03 µM
[3] = second compound 0.003 µM, first compound 0.0949 µM
[4] = second compound 0.003 µM, first compound 0.3 µM
[5] = second compound 0.003 µM, first compound 0.949 µM
[6] = second compound 0.003 µM, first compound 3 µM
[7] = second compound 0.00949 µM, first compound 0.00949 µM
[8] = second compound 0.00949 µM, first compound 0.03 µM
[9] = second compound 0.00949 µM, first compound 0.0949 µM
[10] = second compound 0.00949 µM, first compound 0.3 µM
[11] = second compound 0.00949 µM, first compound 0.949 µM
[12] = second compound 0.00949 µM, first compound 3 µM
[13] = second compound 0.03 µM, first compound 0.00949 µM
[14] = second compound 0.03 µM, first compound 0.03 µM
[15] = second compound 0.03 µM, first compound 0.0949 µM
[16] = second compound 0.03 µM, first compound 0.3 µM
[17] = second compound 0.03 µM, first compound 0.949 µM
[18] = second compound 0.03 µM, first compound 3 µM
[19] = second compound 0.0949 µM, first compound 0.00949 µM
[20] = second compound 0.0949 µM, first compound 0.03 µM
[21] = second compound 0.0949 µM, first compound 0.0949 µM
[22] = second compound 0.0949 µM, first compound 0.3 µM
[23] = second compound 0.0949 µM, first compound 0.949 µM
[24] = second compound 0.0949 µM, first compound 3 µM
[25] = second compound 0.3 µM, first compound 0.00949 µM
[26] = second compound 0.3 µM, first compound 0.03 µM
[27] = second compound 0.3 µM, first compound 0.0949 µM
[28] = second compound 0.3 µM, first compound 0.3 µM
[29] = second compound 0.3 µM, first compound 0.949 µM
[30] = second compound 0.3 µM, first compound 3 µM

SMILES | IC50 (second compound 0.003 µM) [nM] | IC50 (second compound 0.00949 µM) [nM] | IC50 (second compound 0.03 µM) [nM] | IC50 (second compound 0.0949 µM) [nM] | IC50 (second compound 0.3 µM) [nM] | viability, T/C [3] [%] | viability, T/C [4] [%] | viability, T/C [5] [%] | viability, T/C [6] [%] | viability, T/C [9] [%] | viability, T/C [10] [%] | viability, T/C [11] [%] | viability, T/C [12] [%] | viability, T/C [15] [%] | viability, T/C [16] [%] | viability, T/C [17] [%] | viability, T/C [18] [%] | viability, T/C [21] [%] | viability, T/C [22] [%] | viability, T/C [23] [%] | also measured
CNCc1ccc(-c2cc(-c3nc(-c4ccc(S(=O)(=O)C(C)C)cc4)cnc3N)on2)cc1 + CC[C@@]1(O)C(=O)OCc2c1cc1n(c2=O)Cc2cc3c(CN(C)C)c(O)ccc3nc2-1 | 56.1 | < 9.49 | < 9.49 | < 9.49 | < 9.49 | 25.8 | 5.41 | 1.29 | 0.44 | 7.71 | 1.95 | 1 | 0.31 | 1.25 | 1.64 | 0.71 | 0.17 | 0.92 | 0.89 | 0.76 | viability, T/C [1]: 89.3%; viability, T/C [2]: 78.7%; viability, T/C [7]: 49.2%; viability, T/C [8]: 35.6%; viability, T/C [13]: 1.53%; viability, T/C [14]: 4.09%; viability, T/C [19]: 1.32%; viability, T/C [20]: 3.66%; viability, T/C [24]: 0.15%; viability, T/C [25]: 1.45%; viability, T/C [26]: 1.41%; viability, T/C [27]: 1.07%; viability, T/C [28]: 0.61%; viability, T/C [29]: 2.25%; viability, T/C [30]: 0.16%
Cn1ncnc1[C@H]1c2n[nH]c(=O)c3cc(F)cc(c23)N[C@@H]1c1ccc(F)cc1 + CC[C@@]1(O)C(=O)OCc2c1cc1n(c2=O)Cc2cc3c(CN(C)C)c(O)ccc3nc2-1 | < 9.49 | < 9.49 | < 9.49 | < 9.49 | < 9.49 | 29.9 | 8.52 | 1.44 | 1.96 | 2.55 | 1.48 | 1.52 | 2.21 | 1.39 | 1.4 | 1.41 | 1.81 | 1.61 | 1.69 | 1.52 | viability, T/C [1]: 47.7%; viability, T/C [2]: 40.1%; viability, T/C [7]: 5.87%; viability, T/C [8]: 2.75%; viability, T/C [13]: 1.67%; viability, T/C [14]: 1.74%; viability, T/C [19]: 1.86%; viability, T/C [20]: 1.68%; viability, T/C [24]: 1.31%; viability, T/C [25]: 0.97%; viability, T/C [26]: 0.99%; viability, T/C [27]: 0.94%; viability, T/C [28]: 0.9%; viability, T/C [29]: 0.63%; viability, T/C [30]: 0.52%
O=C(c1cc(Cc2n[nH]c(=O)c3ccccc23)ccc1F)N1CCN(C(=O)C2CC2)CC1 + CC[C@@]1(O)C(=O)OCc2c1cc1n(c2=O)Cc2cc3c(CN(C)C)c(O)ccc3nc2-1 | 1480 | < 94.9 | < 94.9 | < 94.9 | < 94.9 | 79.5 | 75.1 | 60.5 | 33.6 | 19.2 | 17.4 | 12.7 | 3.98 | 1.3 | 1.56 | 1.06 | 1.3 | 7.65 | 1.58 | 1.52 | viability, T/C (second compound 0.003 µM, first compound 9.49 µM): 6.04%; viability, T/C (second compound 0.003 µM, first compound 30 µM): 2.34%; viability, T/C (second compound 0.00949 µM, first compound 9.49 µM): 7.48%; viability, T/C (second compound 0.00949 µM, first compound 30 µM): 2.29%; viability, T/C (second compound 0.03 µM, first compound 9.49 µM): 1.43%; viability, T/C (second compound 0.03 µM, first compound 30 µM): 1.97%; viability, T/C [24]: 1.38%; viability, T/C (second compound 0.0949 µM, first compound 9.49 µM): 1.27%; viability, T/C (second compound 0.0949 µM, first compound 30 µM): 1.95%; viability, T/C [27]: 0.94%; viability, T/C [28]: 1.16%; viability, T/C [29]: 0.93%; viability, T/C [30]: 0.82%; viability, T/C (second compound 0.3 µM, first compound 9.49 µM): 0.61%; viability, T/C (second compound 0.3 µM, first compound 30 µM): 0.6%
